Assay results reported in ChEMBL document CHEMBL1143147, “A novel sesquiterpenoid dimer parviflorene F induces apoptosis by up-regulating the expression of TRAIL-R2 and a caspase-dependent mechanism” (Bioorg Med Chem, 2008).
≈ marks a conversion by molar mass, not a printed value. Calls of active or inactive are those of the source. No cut-off for these calls is given here.

Legend:
[1] = tested on: DLD-1; assay: Cytotoxicity against human DLD1/TRAIL-R cells after 24 hrs; assay type: functional, cell-based; conditions: DLD-1, 24 h
[2] = tested on: HeLa; assay: Increase in TRAIL-R2 protein level in human HeLa cells at 4 ug/ml after 24 hrs by Western blot; assay type: functional, cell-based
[3] = tested on: HeLa; assay: Increase in NM_003607 mRNA expression in human HeLa cells by RTPCR; assay type: functional, cell-based
[4] = tested on: HeLa; assay: Induction of apoptosis in human HeLa cells assessed as cleavage of caspase 8 at 4 ug/ml after 12 hrs by Western blot; assay type: functional, cell-based
[5] = tested on: HeLa; assay: Cytotoxicity against human HeLa cells expressed as ratio of Cyr61 gene expression in cells treated with drug at 5 ug/ml over control after 24 hrs; assay type: functional
[6] = tested on: HeLa; assay: Induction of apoptosis in human HeLa cells assessed as caspase 3 activity at 4 ug/ml; assay type: functional, cell-based; conditions: TDE = time-dependent effect
[7] = tested on: HeLa; assay: Induction of apoptosis in human HeLa cells assessed as accumulation at subG1 phase after 6 hrs by flow cytometry; assay type: functional
[8] = tested on: HeLa; assay: Increase in AF016266 mRNA expression in human HeLa cells by RTPCR; assay type: functional
[9] = tested on: HeLa; assay: Induction of apoptosis in human HeLa cells assessed as accumulation at G1 phase after 6 hrs by flow cytometry; assay type: functional
[10] = tested on: HeLa; assay: Induction of apoptosis in human HeLa cells assessed as accumulation at subG1 phase after 24 hrs by flow cytometry; assay type: functional
[11] = tested on: HeLa; assay: Induction of apoptosis in human HeLa cells assessed as late apoptotic cells at 4 ug/ml after 24 hrs by annexin V-FITC and PI staining; assay type: functional
[12] = tested on: DLD-1; assay: Cell viability in human DLD1/TRAIL-R cells at 8 ug/ml after 24 hrs in presence of TRAIL; assay type: functional
[13] = tested on: HeLa; assay: Cell viability in human HeLa cells at 4 ug/ml after 24 hrs in presence of TRAIL; assay type: functional
[14] = tested on: HeLa; assay: Induction of apoptosis in human HeLa cells assessed as accumulation at G1 phase after 24 hrs by flow cytometry; assay type: functional
[15] = tested on: HeLa; assay: Induction of apoptosis in human HeLa cells assessed as accumulation at S phase after 6 hrs by flow cytometry; assay type: functional
[16] = tested on: HeLa; assay: Reversal of drug-induced apoptosis in human HeLa cells ain presence of caspase 9 inhibitor z-LEHD after 12 hrs by Annexin-PI dual staining; assay type: functional
[17] = tested on: HeLa; assay: Reversal of drug-induced apoptosis in human HeLa cells in presence of caspase 8 inhibitor z-IETD after 12 hrs by Annexin-PI dual staining; assay type: functional
[18] = tested on: HeLa; assay: Induction of apoptosis in human HeLa cells assessed as accumulation at subG1 phase after 12 hrs by flow cytometry; assay type: functional
[19] = tested on: DLD-1; assay: Upregulation of TRAIL-R2 protein in human DLD1/TRAIL-R cells at 8 ug/ml by Western blot; assay type: functional, cell-based
[20] = tested on: DLD-1; assay: Upregulation of TRAIL-R2 protein in human DLD1/TRAIL-R cells at 4 ug/ml by Western blot; assay type: functional, cell-based
[21] = tested on: HeLa; assay: Induction of apoptosis in human HeLa cells assessed as early apoptotic cells at 4 ug/ml after 12 hrs by annexin V-FITC/PI staining; assay type: functional
[22] = tested on: HeLa; assay: Induction of apoptosis in human HeLa cells assessed as accumulation at S phase after 12 hrs by flow cytometry; assay type: functional
[23] = tested on: HeLa; assay: Cytotoxicity against human HeLa cells expressed as ratio of TRAIL-R2 gene expression in cells treated with drug at 5 ug/ml over control after 24 hrs; assay type: functional
[24] = tested on: HeLa; assay: Cytotoxicity against human HeLa cells after 24 hrs by FMCA; assay type: functional, cell-based
[25] = tested on: HeLa; assay: Induction of apoptosis in human HeLa cells assessed as accumulation at G2/M phase after 24 hrs by flow cytometry; assay type: functional
[26] = tested on: HeLa; assay: Cell viability in human HeLa cells at 4 ug/ml after 24 hrs; assay type: functional
[27] = tested on: HeLa; assay: Induction of apoptosis in human HeLa cells assessed as accumulation at G2/M phase after 12 hrs by flow cytometry; assay type: functional
[28] = tested on: HeLa; assay: Increase in TRAIL-R2 protein level in human HeLa cells at 8 ug/ml after 24 hrs by Western blot; assay type: functional, cell-based
[29] = tested on: HeLa; assay: Reversal of drug-induced apoptosis in human HeLa cells expressing TRAIL-R2/Fc chimera protein after 12 hrs; assay type: functional, cell-based
[30] = tested on: HeLa; assay: Induction of apoptosis in human HeLa cells assessed as accumulation at S phase after 24 hrs by flow cytometry; assay type: functional
[31] = tested on: HeLa; assay: Induction of apoptosis in human HeLa cells assessed as early apoptotic cells at 4 ug/ml after 24 hrs by annexin V-FITC/PI staining; assay type: functional
[32] = tested on: HeLa; assay: Induction of apoptosis in human HeLa cells assessed as accumulation at G2/M phase after 6 hrs by flow cytometry; assay type: functional
[33] = tested on: HeLa; assay: Cytotoxicity against human HeLa cells expressed as ratio of RHAMM gene expression in cells treated with drug at 5 ug/ml over control after 24 hrs; assay type: functional
[34] = tested on: HeLa; assay: Induction of apoptosis in human HeLa cells assessed as accumulation at G1 phase after 12 hrs by flow cytometry; assay type: functional
[35] = tested on: HeLa; assay: Induction of apoptosis in human HeLa cells assessed as cleavage of caspase 8 at 4 ug/ml after 6 hrs by Western blot; assay type: functional, cell-based
[36] = tested on: DLD-1; assay: Cell viability in human DLD1/TRAIL-R cells at 8 ug/ml after 24 hrs; assay type: functional
[37] = tested on: HeLa; assay: Cytotoxicity against human HeLa cells expressed as ratio of MRCKalpha gene expression in cells treated with drug at 5 ug/ml over control after 24 hrs; assay type: functional

Compound: Cc1cc(O)c2c(c1)[C@H](C(C)C)Cc1cc3c(cc1-2)[C@@H](O)[C@@H](C(C)C)c1cc(C)cc(O)c1-3 [PARVIFLORENE F]
- IC50 [1]: 9.2 mg/L (≈ 20.8 µM)
- Activity [2]: Active
- Activity [3]: Dose-dependent effect
- Activity [4]: inactive
- Ratio [5]: 0.61
- Activity [6]: tde
- Activity [7]: 10.9%
- Fold change [8]: 4.9
- Activity [9]: 56.1%
- Activity [10]: 26.1%
- Activity [11]: 22.9%
- Activity [12]: 20%
- Activity [13]: 16%
- Activity [14]: 52.1%
- Activity [15]: 17.3%
- Activity [16]: 4%
- Activity [17]: 2.2%
- Activity [18]: 31.5%
- Activity [19]: Active
- Activity [20]: Active
- Activity [21]: 52.7%
- Activity [22]: 10.3%
- Ratio [23]: 1.44
- IC50 [24]: 4.3 mg/L (≈ 9.72 µM)
- Activity [25]: 15.3%
- Activity [26]: 44%
- Activity [27]: 16.6%
- Activity [28]: Active
- Activity [29]: Active
- Activity [30]: 5.5%
- Activity [31]: 41.2%
- Activity [32]: 15.6%
- Ratio [33]: 0.68
- Activity [34]: 41.6%
- Activity [35]: Active
- Activity [36]: 54%
- Ratio [37]: 1.71
